Columns and labels:
[1] = molecular target: T1, SCN5A (INa) (Homo sapiens, UniProt Q14524); test: Whole-cell patch clamp, INa in SCN5A-transfected HEK293 cells; type: cell-based; conditions: for INa current: HEK293
T1 construct: expressed in transfected cells; host or cells: HEK293
Description: (§1) For various aspects of cardiac ion channel study, human embryonic kidney (HEK293; ATCC, Manassas, VA, USA) cells were transiently transfected using lipofectAmin2000 (Gibco BRL, New York, NY, USA) according to the manufacturer’s instructions. The hERG (human ether-ago-go-related gene corresponding to IKr), KCNQ1/KCNE1 (the gene corresponding to IKs), KCNJ2 (the gene corresponding to IK1) or SCN5A (the gene corresponding to INa) cDNA was co-transfected with green fluorescence protein, the surface marker protein, to allow assessment of the transfection efficiency. For the calcium current, enzymatically isolated single rat ventricular myocytes were used. Briefly, the hearts were rapidly excised from anaesthetized Sprague–Dawley rats (250–350 g) and perfused via the aorta on a Langendorff apparatus with an oxygenated normal Tyrode (NT) solution for 5 min. To clear the blood, then perfused with Ca^2+-free normal Tyrode solution for 3 min. Next, the heart was perfused with enzyme solution containing 0.6 mg/mL collagenase (Worthington Biomedical Corp., Lakewood, NJ, USA) for 30–40 min. Finally, this enzyme-containing solution was washed out for 5 min. with a high-K^+ and low-Cl^-) Kraft-Bruhe solution. Following the isolation procedure, the left ventricle was dissected out and agitated mechanically with a fire-polished Pasteur pipette in Kraft-Bruhe solution to obtain single myocytes. The isolated myocytes were stored at 4°C until use.
The external solution for recording the IhERG, IKs and INa channel currents was NT solution. […] Kraft-Bruhe solution for storage of the freshly isolated rat ventricular myocytes contained (in mM): 70 K-glutamate, 55 KCl, 10 HEPES, 3 MgCl2, 20 taurine, 20 KH2PO4, 0.5 ethylene glycol tetra acetic (K-EGTA) (pH 7.2 with KOH).
pCLAMP (Axon Instruments, Foster City, CA, USA), Origin 8 (OriginLab Corp, Northampton, MA, USA), and Excel (Microsoft, Redmond, WA, USA) were used for data acquisition and analysis. The concentration–response relationships for drug-induced blockage were calculated using SigmaPlot (Systat Software, San Jose, CA, USA). […] Data are presented as the means ± SEM, and n represents the number of experimental replicates. Statistical significance was determined using the Student’s t-test and one-way ANOVA with post hoc testing using Dunnett’s method; p < 0.05 was considered to indicate statistical significance.
For hERG tail current, the cells were depolarized for 2 s to +20 mV from a holding potential of -80 mV followed by a 3 s repolarization back to -40 mV. […] For slow delayed rectifier potassium current (IKs) recording, the cells were depolarized for 3s to +60 mV from a holding potential of -80 mV, followed by a 3 s repolarization back to -40 mV (Fig 2B). […]

[2] = molecular target: F656A hERG (Homo sapiens, UniProt Q12809, F656A); test: in vitro; conditions: HEK-293 cells transiently expressing F656A mutant hERG
[3] = molecular target: Y652A hERG (Homo sapiens, UniProt Q12809, Y652A); test: in vitro; conditions: HEK-293 cells transiently expressing Y652A mutant hERG
[4] = molecular target: WT hERG (inward tail current) (Homo sapiens, UniProt Q12809); conditions: human, HEK-293 cells transiently expressing wild-type hERG
Description: (§2) The hERG mutations were constructed by site-directed mutagenesis of WT hERG cDNA in pcDNA3.1 vector using the QuickChange Site-Directed Mutagenesis Kit (Stratagene), and the integrity of the construct was verified by DNA sequencing. The WT hERG (generously donated by Professor Ho, Seoul National University, Korea) and mutant channels were transiently expressed in an HEK-293 cell line using Lipofectamine 2000 (Gibco), according to the manufacturer’s recommendations.

[5] = molecular target: WT (inward) hERG (Homo sapiens, UniProt Q12809); conditions: 3 μM, -120 mV, high K+
Description: as §2

[6] = molecular target: Ca2+-specific inward current (ICa) (Rattus norvegicus, UniProt P22002); test: Whole-cell patch clamp, ICa in isolated rat ventricular myocytes; type: cell-based
Description: as §1, with “Next, the heart was perfused with enzyme solution containing 0.6 mg/mL collagenase (Worthington Biomedical Corp., Lakewood, NJ, USA) for 30–40 min. Finally, this enzyme-containing solution was washed out for 5 min. with a high-K^+ and low-Cl^-) Kraft-Bruhe solution. Following the isolation procedure, the left ventricle was dissected out and agitated mechanically with a fire-polished Pasteur pipette in Kraft-Bruhe solution to obtain single myocytes. The isolated myocytes were stored at 4°C until use.” left out
The external solution for recording the IhERG, IKs and INa channel currents was NT solution. […] The calcium current was measured in naïve rat ventricular myocytes, cells were superfused with an external solution that consisted of (in mM): 137 choline-Cl, 5 CsCl, 0.5 MgCl2, 2 4-AP, 10 HEPES, 10 glucose and 1.8 CaCl2 (pH 7.4 with NaOH), whereas the intracellular solution used to fill the pipette had the following ionic solution (in mM): 20 CsCl, 100 Cs-aspartate, 10 EGTA, 10 HEPES, 20 TEA-Cl, 5 Mg-ATP (pH 7.25 with KOH). […]
pCLAMP (Axon Instruments, Foster City, CA, USA), Origin 8 (OriginLab Corp, Northampton, MA, USA), and Excel (Microsoft, Redmond, WA, USA) were used for data acquisition and analysis. The concentration–response relationships for drug-induced blockage were calculated using SigmaPlot (Systat Software, San Jose, CA, USA). […] Statistical significance was determined using the Student’s t-test and one-way ANOVA with post hoc testing using Dunnett’s method; p < 0.05 was considered to indicate statistical significance. […]

Sequence of Ca2+-specific inward current (ICa) (P22002 whole entry, other chains not shown, the tested form may be a part): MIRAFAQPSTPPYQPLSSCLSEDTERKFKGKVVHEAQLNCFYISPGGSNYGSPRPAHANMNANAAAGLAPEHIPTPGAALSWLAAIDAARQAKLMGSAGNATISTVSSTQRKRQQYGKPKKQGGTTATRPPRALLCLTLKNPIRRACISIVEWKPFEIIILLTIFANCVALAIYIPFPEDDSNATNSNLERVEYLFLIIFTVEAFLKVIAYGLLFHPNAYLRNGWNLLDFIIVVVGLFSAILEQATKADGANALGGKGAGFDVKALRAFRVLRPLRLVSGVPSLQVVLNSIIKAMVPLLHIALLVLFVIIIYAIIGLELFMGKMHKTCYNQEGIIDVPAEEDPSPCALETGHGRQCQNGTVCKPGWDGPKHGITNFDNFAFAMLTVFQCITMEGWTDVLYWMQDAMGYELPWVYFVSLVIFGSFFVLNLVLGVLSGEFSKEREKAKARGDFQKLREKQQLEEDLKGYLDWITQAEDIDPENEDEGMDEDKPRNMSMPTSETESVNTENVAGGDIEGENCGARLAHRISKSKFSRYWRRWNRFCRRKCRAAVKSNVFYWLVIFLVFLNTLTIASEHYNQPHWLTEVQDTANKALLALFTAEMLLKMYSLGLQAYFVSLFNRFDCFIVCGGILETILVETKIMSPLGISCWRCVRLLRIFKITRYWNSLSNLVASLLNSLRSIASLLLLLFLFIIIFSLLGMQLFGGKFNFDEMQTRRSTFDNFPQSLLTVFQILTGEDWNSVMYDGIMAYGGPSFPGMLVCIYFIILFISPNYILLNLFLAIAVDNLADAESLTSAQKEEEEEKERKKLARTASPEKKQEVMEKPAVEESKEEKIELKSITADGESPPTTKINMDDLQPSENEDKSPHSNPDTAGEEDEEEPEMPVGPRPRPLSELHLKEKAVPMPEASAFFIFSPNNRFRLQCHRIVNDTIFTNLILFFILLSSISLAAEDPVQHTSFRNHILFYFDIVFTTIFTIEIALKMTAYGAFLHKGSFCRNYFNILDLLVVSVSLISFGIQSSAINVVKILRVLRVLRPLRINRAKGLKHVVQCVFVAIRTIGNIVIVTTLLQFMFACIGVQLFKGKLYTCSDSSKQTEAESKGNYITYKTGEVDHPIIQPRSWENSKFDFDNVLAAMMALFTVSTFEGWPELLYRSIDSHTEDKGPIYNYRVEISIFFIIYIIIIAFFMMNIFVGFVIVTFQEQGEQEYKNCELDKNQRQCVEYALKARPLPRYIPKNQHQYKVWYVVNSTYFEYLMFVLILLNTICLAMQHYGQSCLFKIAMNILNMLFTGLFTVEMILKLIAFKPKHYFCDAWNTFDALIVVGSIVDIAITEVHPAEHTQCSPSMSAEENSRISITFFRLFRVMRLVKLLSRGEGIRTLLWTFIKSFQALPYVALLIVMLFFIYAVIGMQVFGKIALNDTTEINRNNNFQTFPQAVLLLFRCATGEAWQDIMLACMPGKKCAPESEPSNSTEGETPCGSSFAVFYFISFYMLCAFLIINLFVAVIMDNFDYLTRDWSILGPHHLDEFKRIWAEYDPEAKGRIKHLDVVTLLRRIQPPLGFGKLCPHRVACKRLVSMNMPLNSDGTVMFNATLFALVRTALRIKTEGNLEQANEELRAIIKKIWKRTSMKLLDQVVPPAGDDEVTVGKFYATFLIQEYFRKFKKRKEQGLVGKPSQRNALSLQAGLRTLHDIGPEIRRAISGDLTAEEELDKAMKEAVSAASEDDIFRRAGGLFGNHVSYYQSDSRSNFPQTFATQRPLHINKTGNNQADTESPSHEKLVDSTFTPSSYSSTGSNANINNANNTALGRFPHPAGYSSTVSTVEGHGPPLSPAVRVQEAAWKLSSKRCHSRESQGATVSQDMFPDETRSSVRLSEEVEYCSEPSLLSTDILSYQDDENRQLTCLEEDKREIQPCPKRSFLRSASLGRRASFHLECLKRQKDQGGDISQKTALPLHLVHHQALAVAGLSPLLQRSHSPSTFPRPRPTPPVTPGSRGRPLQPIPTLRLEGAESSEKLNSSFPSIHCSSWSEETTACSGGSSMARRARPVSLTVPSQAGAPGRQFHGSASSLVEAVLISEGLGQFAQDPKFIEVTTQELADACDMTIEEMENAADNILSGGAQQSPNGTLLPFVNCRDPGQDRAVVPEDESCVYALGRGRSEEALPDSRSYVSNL
Sequence of Ca2+-specific inward current (ICa) (P54290 25-1091 partner, other chains not shown): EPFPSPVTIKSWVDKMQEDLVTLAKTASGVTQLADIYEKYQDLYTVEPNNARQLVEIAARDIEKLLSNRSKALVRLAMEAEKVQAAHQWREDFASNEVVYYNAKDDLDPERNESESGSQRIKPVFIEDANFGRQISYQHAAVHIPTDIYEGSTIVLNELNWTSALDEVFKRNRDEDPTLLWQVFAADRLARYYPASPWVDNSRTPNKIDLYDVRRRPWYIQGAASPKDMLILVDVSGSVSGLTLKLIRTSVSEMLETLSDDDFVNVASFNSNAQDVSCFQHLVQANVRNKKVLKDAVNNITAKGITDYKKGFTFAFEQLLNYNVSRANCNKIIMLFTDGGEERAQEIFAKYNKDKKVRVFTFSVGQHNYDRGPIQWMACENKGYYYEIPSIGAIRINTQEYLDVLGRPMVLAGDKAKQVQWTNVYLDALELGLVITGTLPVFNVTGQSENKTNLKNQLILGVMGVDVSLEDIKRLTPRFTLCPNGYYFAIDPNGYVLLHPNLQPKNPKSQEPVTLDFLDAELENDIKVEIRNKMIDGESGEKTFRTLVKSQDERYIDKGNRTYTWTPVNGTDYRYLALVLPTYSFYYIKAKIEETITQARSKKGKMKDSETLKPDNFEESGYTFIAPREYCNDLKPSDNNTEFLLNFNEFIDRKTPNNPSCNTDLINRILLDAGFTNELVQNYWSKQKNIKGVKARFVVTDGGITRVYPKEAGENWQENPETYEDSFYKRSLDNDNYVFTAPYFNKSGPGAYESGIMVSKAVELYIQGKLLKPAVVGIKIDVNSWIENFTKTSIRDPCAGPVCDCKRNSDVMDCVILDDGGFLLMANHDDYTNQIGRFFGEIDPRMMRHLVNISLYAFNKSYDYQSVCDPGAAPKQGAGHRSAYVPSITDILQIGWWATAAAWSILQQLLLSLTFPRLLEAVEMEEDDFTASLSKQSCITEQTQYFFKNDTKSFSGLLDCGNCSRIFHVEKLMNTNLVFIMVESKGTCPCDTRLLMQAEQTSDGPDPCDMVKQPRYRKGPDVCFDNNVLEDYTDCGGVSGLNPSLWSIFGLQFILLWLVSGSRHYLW
Sequence of F656A hERG (Q12809 whole entry F656A): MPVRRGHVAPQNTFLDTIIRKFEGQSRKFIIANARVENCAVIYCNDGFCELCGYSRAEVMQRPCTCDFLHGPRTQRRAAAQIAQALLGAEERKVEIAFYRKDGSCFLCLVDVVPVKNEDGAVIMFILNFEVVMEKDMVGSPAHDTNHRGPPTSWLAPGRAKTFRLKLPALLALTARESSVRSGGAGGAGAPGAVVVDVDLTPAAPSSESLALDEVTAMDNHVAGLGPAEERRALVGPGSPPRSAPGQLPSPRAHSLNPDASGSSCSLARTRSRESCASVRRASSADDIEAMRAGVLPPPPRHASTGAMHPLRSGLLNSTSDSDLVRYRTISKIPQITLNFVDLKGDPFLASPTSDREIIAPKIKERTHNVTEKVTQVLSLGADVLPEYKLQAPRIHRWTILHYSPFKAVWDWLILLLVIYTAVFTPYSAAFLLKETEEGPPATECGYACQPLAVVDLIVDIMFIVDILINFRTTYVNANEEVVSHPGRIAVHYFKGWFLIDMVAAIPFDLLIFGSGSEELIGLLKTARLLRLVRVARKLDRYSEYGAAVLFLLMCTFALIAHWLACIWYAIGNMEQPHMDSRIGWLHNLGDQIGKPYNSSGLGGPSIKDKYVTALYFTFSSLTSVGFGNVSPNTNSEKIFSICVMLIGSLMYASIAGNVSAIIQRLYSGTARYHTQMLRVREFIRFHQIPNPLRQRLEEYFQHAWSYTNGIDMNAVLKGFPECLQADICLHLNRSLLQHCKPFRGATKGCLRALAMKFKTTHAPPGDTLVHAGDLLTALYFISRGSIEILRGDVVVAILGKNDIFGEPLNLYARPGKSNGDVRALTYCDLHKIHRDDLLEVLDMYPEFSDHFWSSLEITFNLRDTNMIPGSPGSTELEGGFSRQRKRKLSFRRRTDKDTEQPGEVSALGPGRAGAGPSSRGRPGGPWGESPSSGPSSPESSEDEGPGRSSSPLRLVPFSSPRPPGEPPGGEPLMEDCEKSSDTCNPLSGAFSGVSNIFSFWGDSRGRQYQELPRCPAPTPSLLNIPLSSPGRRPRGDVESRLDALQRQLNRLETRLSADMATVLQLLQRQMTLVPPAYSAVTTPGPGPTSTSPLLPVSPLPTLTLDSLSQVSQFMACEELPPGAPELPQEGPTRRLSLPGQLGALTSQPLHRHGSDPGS

ICa current ([6]; 10 μM): -1639.5 ± 238.1 | ICa current ([6]; 30 μM): -990.7 ± 97.8 | ICa current ([6]; 100 μM): -219.7 ± 24.4
SMILES: COc1cc2c(Nc3ccc(Br)cc3F)ncnc2cc1OCC1CCN(C)CC1 [Vandetanib]
INa current ([1]; 10 μM): -948.9 ± 24.2 | INa current ([1]; 30 μM): -743.0 ± 85.1 | INa current ([1]; 100 μM): -94.2 ± 36.8 | IC50 ([1]; SCN5A-encoded HEK293 cells): 36.6 µM | inhibition at 3 μM [2]: 27.4 ± 4.8% | inhibition at 3 μM [3]: 64.2 ± 2.8% | inhibition at 3 μM [4]: 69 ± 1.8% | WT (inward) hERG current [5]: -1818.9 ± 217.3

Reference: publication PMC5891061, “Electrophysiological mechanisms of vandetanib-induced cardiotoxicity: Comparison of action potentials in rabbit Purkinje fibers and pluripotent stem cell-derived cardiomyocytes” (PLoS ONE, 2018)
